Common to all, as to test: DTP human tumour cell line panel, 48 h
Experiment [1] relates to K-562 leukemia.
Experiment [2] has as its system COLO 205 colon.
For experiment [3], the system named is SR leukemia.
Experiment [4] relates to 786-0 renal.
The test system of experiment [5] is UO-31 renal.
The test system of experiment [6] is U251 CNS.
The test system of experiment [7] is HCT-15 colon.
The test system of experiment [8] is MDA-MB-435.
In experiment [9] the test system is LOX IMVI melanoma.
The test system of experiment [10] is SF-295 CNS.

Each structure is given as a SMILES string. “And” between values parts separate entries of the source, which are not always exact repeats. Identical values can stand only once.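 Compound exposure: 48 hours, 5 concentrations, 96-well plates. GI50 = concentration required for 50% inhibition of growth. TGI: total growth inhibition.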

Consider eight compounds from PubChem BioAssay (NCI).

Broadly, the GI50 is the concentration giving 50% growth inhibition. In general, TGI refers to the concentration giving total growth inhibition. For `CCC(CC)n1cnc2c(-c3cnc(N)cn3)nc(N3CC4CCC(C3)O4)nc21`, the GI50 in [1] was 854 nM; in experiment [2] it was 269 nM; in [3] it was 351 nM; in experiment [4] it was 237 nM; in [5], 96.1 nM; in [6], 1300 nM. Moreover, the GI50 was 432 nM in [7], 314 nM in experiment [8], 428 nM in experiment [9] and 173 nM in experiment [10]. Also, the TGI in [1] was > 100 µM; in experiment [2], > 83 µM; in experiment [3], > 100 µM; in experiment [4], > 100 µM; in [6], > 100 µM; in experiment [7] it was > 100 µM. Also, the results for the TGI in [8], in experiment [9] and in experiment [10] were 4.63 µM, > 100 µM and 1.59 µM, respectively.

As for `COc1cc(-c2nn(-c3cccc(NC(=O)Nc4ccc(Cl)c(C(F)(F)F)c4)c3)cc2-c2ccncc2)ccc1Cl`, the GI50 in [1] was 1210 nM; in experiment [2], 711 nM; in experiment [3], 884 nM; in experiment [4], 1610 nM; in [5] it was 865 nM; in experiment [6] it was 985 nM. Further, the GI50 is 1230 nM in experiment [7], 683 nM in [8], 1170 nM in experiment [9] and 840 nM in [10]. Also, the TGI is > 32.5 µM in [1]; 1.54 µM in experiment [2]; 2.48 µM in [3]; 8.02 µM in experiment [4]; 4.1 µM in [5]; 4.18 µM in experiment [6]. For the same compound, the TGI in [7] stood at 7.05 µM; in experiment [8] it was 1.69 µM; in experiment [9], 4.61 µM; in [10], 2.54 µM.

`Cc1c(CN2CCN(C(=O)[C@H](C)O)CC2)sc2c(N3CCOCC3)nc(-c3cnc(N)nc3)nc12`: the GI50 is 1500 nM and 2390 nM in [1]; 224 nM and 233 nM in [2]; 365 nM and 262 nM in experiment [3]; 380 nM and 159 nM in experiment [4]; 57.9 nM and 53 nM in experiment [5]; 1050 nM and 328 nM in [6]. Besides, the GI50 in experiment [7] was 258 nM and 248 nM; in experiment [8] it was 285 nM and 186 nM; in [9] it was 153 nM and 179 nM; in [10], 131 nM and 82.2 nM. For the same compound, the TGI in experiment [1] was > 100 µM; in experiment [2] it was > 5.47 µM and 9.5 µM; in experiment [3], > 10 µM and 3.88 µM; in experiment [4] it was 4.72 µM and 1.11 µM; in experiment [5], 1.35 µM and 0.658 µM; in experiment [6], > 35.8 µM. The TGI was > 100 µM in [7]; 3.16 µM and 1.38 µM in [8]; 3.05 µM and 2.64 µM in experiment [9]; 1.72 µM and 0.529 µM in [10].

`O=C(O)c1cccc(S(=O)(=O)NCCO)c1`: the TGI in [1], in [2], in experiment [3], in experiment [4], in [5] and in experiment [6] was > 100 µM each time. Moreover, the TGI in experiment [7], in experiment [8], in experiment [9] and in experiment [10] was > 100 µM throughout.

Regarding `Cc1ccc(CNc2ccc3nc(CCC4CCCCC4)[nH]c3c2)cc1`, the GI50 in experiment [1] is 2100 nM; in experiment [2], 1880 nM; in experiment [3], 2910 nM; in [4], 2120 nM; in experiment [5] it was 1350 nM; in experiment [6], 1790 nM. Moreover, the GI50 was 1940 nM in experiment [7], 2090 nM in experiment [8], 1740 nM in experiment [9] and 1880 nM in experiment [10]. Further, the TGI was 5.47 µM in experiment [1]; 3.66 µM in [2]; 8.74 µM in experiment [3]; 4.93 µM in experiment [4]; 3.3 µM in experiment [5]; 3.62 µM in experiment [6]. Besides, the TGI in experiment [7] is 6.82 µM; in experiment [8] it was 4.85 µM; in [9], 3.19 µM; in experiment [10], 3.92 µM.

Take `COc1ccc(Nc2nc(NCCNc3ccnc4cc(Cl)ccc34)nc(N3CCOCC3)n2)cc1`: the GI50 in experiment [1] was 2090 nM; in experiment [2], 1530 nM; in [3], 2010 nM; in experiment [4], 2110 nM; in [5], 1330 nM; in [6] it was 3100 nM. Besides, the GI50 is 2630 nM in experiment [7], 1820 nM in experiment [8], 3010 nM in experiment [9] and 2050 nM in experiment [10]. Moreover, the TGI in [1] came to 7.82 µM; in [2] it was 3.33 µM; in [3], 7.36 µM; in [4], 12.3 µM; in experiment [5], 14.2 µM; in experiment [6], 15.4 µM. Further, the TGI in experiment [7] stood at 10.9 µM; in experiment [8], 3.49 µM; in experiment [9], 10.6 µM; in experiment [10], 3.92 µM.

For the compound `OC1CC2CCC(C1)N2CCCN1c2ccccc2Sc2ccc(Cl)cc21` (centres undefined), the TGI amounted to 4.61 µM in experiment [1]; 3.35 µM in experiment [2]; 5.34 µM in [3]; 3.54 µM in [4]; 7.09 µM in [5]; 3.45 µM in [6]. The TGI was 6.65 µM in experiment [7], 3.31 µM in [8], 3.33 µM in experiment [9] and 3.67 µM in experiment [10].

As for `COc1ccc2cc(-c3cnc4nonc4n3)ccc2c1`, the GI50 in [1] is 468 nM; in experiment [2], 3120 nM; in [3], 423 nM; in experiment [4] it was 4170 nM; in experiment [5] it was 3230 nM; in experiment [6], 3210 nM. Moreover, the GI50 is 684 nM in experiment [7], 1000 nM in [8], 1880 nM in experiment [9] and 2080 nM in experiment [10]. Further, the TGI in experiment [1] is > 100 µM; in experiment [2], > 100 µM; in [3] it was > 100 µM; in experiment [4], > 100 µM; in experiment [5], > 100 µM; in [6] it was 37.3 µM. Also, the TGI in experiment [7] was > 100 µM; in experiment [8] it was 3.35 µM; in experiment [9] it was > 100 µM; in [10], > 100 µM.
